Reference: patent US9610294B2, “Methods and compositions for the treatment of fluid accumulation in and/or under the retina” (UNIVERSITE PARIS DESCARTES, priority 2010, dated 2017)
“Also recorded” adds a separate entry of the source.

Key:
[1] = tested on: AQP4; experiment: AQP4 mRNA expression in RMG cells (Example 2); assay type: cell-based
Excerpt: We have performed several experiments.

[2] = tested on: GFAP; experiment: GFAP immunostaining of retinas from aldosterone-injected eyes (glial activation); assay type: in vivo, Lewis rats; conditions: intravitreous injection, vs sham-injected retinas
Experimental: Anesthesia of rats was induced by intramuscular injection of ketamine (100 mg/kg, Virbac, Carros, France) and chlorpromazine (0.65 mg/kg, LARGACTIL®, Sanofi Aventis, Livron sur Drome, France). Intravitreous injections were performed using microfine (300 μl) syringes with 30 G needles under topical anesthesia (tetracaine 1%, Aldrich, Lyon, France). Rat eyes were injected with 5 μl aldosterone diluted in 0.9% saline to obtain a concentration of 200 nM for injection, corresponding to a final concentration of 20 nM in the vitreous. Control rat eyes were injected with 5 μl saline. Twenty-four hrs after injection, rats were sacrificed. Eyes were then removed for retinal flat mounting, immunohistochemistry and morphological analysis respectively.
Eyes were fixed for 15 min in 4% paraformaldehyde (PFA, LADD, Inland Europe, Conflans-sur-Lanterne, France). After washing, retinas were isolated, cut by 4 orthogonal incisions and post-fixed with acetone 100% at −20° C. for 15 min. They were then rehydrated with phosphate-buffered saline (PBS) containing 1% Triton X-I00, and incubated with a polyclonal rabbit antibody against AQP4 (1:100) or a polyclonal rabbit antibody against glial fibrillary acidic protein (GF AP, 1:100, Dako, Trappes, France) at room temperature under stirring overnight. […]

[3] = tested on: aquaporin 1; experiment: Aquaporin 1 expression after exposure to aldosterone; conditions: normal rat, 24 hours exposure, low aldosterone dose (1-10 nM)
[4] = tested on: Kir4.1; experiment: Kir4.1 expression (real-time PCR, western blot) in rat RMG primary cultures and retinal explants; assay type: cell-based
Experimental: (§1) Rat RMG cells were obtained as described (deKozak, Y., Naud, M. C., Bellot, J., Faure, J. P., and Hicks, D. (1994) Differential tumor necrosis factor expression by resident retinal cells from experimental uveitis-susceptible and -resistant rat strains. J Neuroimmunol 55, 1-9). Briefly, rats at postnatal (PN) day 17 (when RMG cells are mature) were sacrificed and eyes enucleated. Intact eyeballs were maintained in DMEM overnight at room temperature in the dark, and then incubated 45 min with 2 mg/ml trypsin/collagenase I at 37° C. The neural retinas were separated from the lens and vitreous, cut into small fragments and plated in Petri dishes containing DMEM supplemented with 10% FCS, 100 units/ml penicillin, 100 µg/ml streptomycin, and 0.2% amphotericin B. Cultures were maintained at 37° C. in a humidified atmosphere containing 5% CO2. After 5 to 6 days, the cultures were washed extensively with medium so that only a strongly adherent flat cell population remained.
(§2) Müller cells were seeded in 6-well tissue culture plates (Becton Dickinson, Le Pont de Claix, France). Rat PN17 RMG cells were maintained in their initial Petri dishes. Sub confluent (80%) cells were incubated in media supplemented with 10% steroid-free (charcoal treated) FCS for 24 hrs. Corticosteroid (Sigma-Aldrich, Saint Quentin Fallavier, France) treatments were then applied respectively for a further 24 hrs: 10 nM aldosterone, 10 nM aldosterone plus 1).IM RU38486 (GR-specific antagonist), 10 nM aldosterone plus 1 µM RU26752 (MR-specific antagonist) or 1 µM dexamethasone. The steroids were previously dissolved in 2% steroid-free FCS media containing 0.1% ethanol. Control cells were treated with 0.1% ethanol in media.
(§3) After enucleation, rat retinas were isolated immediately under aseptic conditions and cut into 4 pieces. They were then transferred onto a Cyclopore 0.2).Im polycarbonate membrane (Whatman, Maidstone, England), and flatmounted with the vitreal side up. The support membranes were placed in 6-well tissue culture plates containing 2 ml DMEM supplemented with 10% steroid-free FCS, 1% penicillin-streptomycin and 0.1% amphotericin B. Explants were treated with corticosteroids as described for cultured cells. Similarly, the dose-dependent effect of aldosterone (0.1-100 nM) was analyzed on retinal explants in separate experiments.
(§4) Total RNA was isolated from the treated RMG cells and retinal explants using RNeasy Mini Kit (Qiagen, Courtaboeuf, France). First-strand cDNA was synthesized after DNase I (Qiagen) treatment using random primers (Invitrogen) and superscript II reverse transcriptase (Invitrogen). Transcript levels of ENaC-a, Kir4.1 and AQP4 were analyzed by real-time PCR performed in 7500 Real-Time PCR System (Applied Biosystems, Foster City, Calif., USA) with either TaqMan® (Applied Biosystems) or SYBR® Green (Invitrogen, Cergy Pontoise, France) detection. The 18S was used as internal control.
(§5) Retinal explants were homogenized in Np40 buffer in the presence of protease inhibitors. The protein concentration was determined by the Bradford method. Equal amounts of protein (12 .ug) were separated on Novex® 4%-12% Tris-Glycine gel (Invitrogen), transferred to nitrocellulose, and the blots were incubated with primary antibodies at 4° C. overnight. The membranes were washed, incubated with horse radish peroxidase conjugated goat anti-rabbit IgG (1:3000, Vector, AbCys, Paris, France) for 1 hr at room temperature, and developed using ECL Plus western blotting detection reagents (GE healthcare, Orsay, France). The j3-actin was used as internal control. The following primary antibodies were used: rabbit anti-alpha ENaC (1:500, Abcam, Cambridge, Mass., USA), rabbit anti-Kir4.1 (1:400, Alomone Labs, Jerusalem, Israel), rabbit anti-AQP4 (1:750, Millipore, St Quentin en Yvelines, France) and rabbit anti-j3-actin (1:1000, Abcam)

[5] = tested on: retina; experiment: Intraocular injection in Brown Norway rats (gain of function mutation in the MR gene): CSCR-like retinal pathology; assay type: in vivo; conditions: FIGS. 1 and 2
[6] = tested on: AQP4; experiment: AQP4 expression (real-time PCR, western blot) in rat RMG primary cultures and retinal explants; assay type: cell-based
Experimental: as §1, §2, §3, §4, §5

[7] = dose-dependent effect, retinal explants

Structure (SMILES): C[C@]12CCC(=O)C=C1CC[C@@H]1[C@@H]2[C@@H](O)C[C@]2(C=O)[C@@H](C(=O)CO)CC[C@@H]12 [aldosterone]
- expression of the water channel AQP4 [1]: up-regulates
- glial (RMG) activation, GFAP distribution [2]: enhances glial activation; also recorded: strong activation of RMG
- expression of aquaporin 1 [3]: reduces
- Kir4.1 expression (transcripts) ([4]; 24 hrs treatment, rat RMG primary cultures and retinal explants): up-regulate
- expression of potassium channel Kir4.1 ([4]; aldosterone 24 hrs): 1.9 fold
- aldosterone concentration at which increase in Kir4.1 transcripts is fully saturated [4, 7]: 10 nM
- Kir4.1 expression at the protein level ([4]; western blot): up-regulated
- retinal pathology after intraocular injection [5]: develop a retinal pathology similar to CSCR; also recorded: vasodilation of choroid vessels, rupture of the junction between RPE cells, swallowing of the photoreceptor segments and sub retinal fluid accumulation; also recorded: develop a retinal pathology very close to CSCR
- AQP4 mRNA expression ([6]; 24 hrs treatment, RMG primary cultures or retinal explants): increase
- aquaporin 4 (AQP4) up-regulation ([6]; aldosterone 24 hrs): 2.9 fold
- aldosterone concentration at which increase in AQP4 mRNA is saturated [6, 7]: 10 nM
- expression of aquaporin 4 (AQP4) ([6]; normal rat, 24 hours exposure, low aldosterone dose (1-10 nM)): enhances the expression
- AQP4 expression at the protein level ([6]; western blot): increases
